Consider 4 molecules from US9630977B2, “Cephalosporin derivatives and pharmaceutical compositions thereof” (Legochem Biosciences, Inc., priority 2011, dated 2017).

In general, MIC90 refers to an inhibitory concentration at the 90% level, which refers to growth in some studies and to a panel of isolates in others.

Common to all, as to experiment: In vitro antibacterial activity test (broth microdilution)
Holding throughout (format): cell-based
A general note: In broth dilution the organism is exposed to a series of concentrations in liquid medium.

For one experiment, the system named is K. pneumoniae β10. Conditions: Klebsiella pneumoniae. The method in brief: (§1)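 Susceptibility of clinical bacterial isolates is measured by CLSI broth microdilution. Final drug concentrations range 0.0626–128 ug/mL in 2.5% (V/V) DMSO; MIC90 recorded as lowest concentration blocking visible growth of 90% of organisms.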
The next experiment deals with K. pneumoniae β9. Conditions: Klebsiella pneumoniae. The method in brief: as §1
A further experiment deals with M. catarrhalis 2524. As to conditions: Moraxella catarrhalis. In a few lines:
as §1

For a further experiment, the system named is A. baumannii 46. The method in brief:
as §1

The subject of experiment [1] is A. calcoaceticus ATCC15473. As to conditions: Acinetobacter calcoaceticus. The method in brief: as §1
Another experiment relates to E. coli β4. As to conditions: Escherichia coli. In a few lines:
as §1

For a further experiment, the system named is K. pneumoniae β13. As to conditions: Klebsiella pneumoniae. The method in brief:
as §1

The test system of the next experiment is K. pneumoniae β14. As to conditions: Klebsiella pneumoniae. In a few lines:
as §1

For another experiment, the system named is P. aeruginosa 6065Y. Conditions: Pseudomonas aeruginosa. In a few lines: as §1
The next experiment relates to K. pneumoniae β11. Conditions: Klebsiella pneumoniae. In a few lines: as §1
The test system of a further experiment is E. coli AG100. Conditions: Escherichia coli. The method in brief:
as §1

In a further experiment the test system is K. pneumoniae 2011E. As to conditions: Klebsiella pneumoniae, 2011E. In a few lines:
as §1

In a further experiment the test system is A. baumannii 49. In a few lines: as §1
The test system of a further experiment is P. aeruginosa 40. The method in brief: as §1
In another experiment the test system is A. baumannii 52. As to conditions: Acinetobacter baumannii. The method in brief:
as §1

The test system of a further experiment is P. aeruginosa 43. As to conditions: Pseudomonas aeruginosa. In a few lines:
as §1

The subject of a further experiment is P. aeruginosa 37. Conditions: Pseudomonas aeruginosa, 37, P. aeruginosa 37. The method in brief:
as §1

A further experiment has as its system P. aeruginosa 1912E. As to conditions: Pseudomonas aeruginosa, 1912E. In a few lines: as §1
The next experiment concerns E. cloacae β19. Conditions: Enterobacter cloacae. The method in brief:
as §1

Setting [2] is: K. pneumoniae β10, read-out: MIC90.
[3] abbreviates: K. pneumoniae β9, read-out: MIC90.
[4] abbreviates: M. catarrhalis 2524, read-out: MIC90.
Setting [5] is: Acinetobacter baumannii, A. baumannii 46, read-out: MIC90.
[6] abbreviates: A. calcoaceticus ATCC15473, read-out: MIC90.
Where [7] appears, read: K. pneumoniae β13, read-out: MIC90.
[8] abbreviates: K. pneumoniae β11, read-out: MIC90.
Where [9] appears, read: AG100, E. coli AG100, read-out: MIC90.
Setting [10] is: K. pneumoniae 2011E, read-out: MIC90.
The mark [11] stands for this setting: Acinetobacter baumannii, A. baumannii 49, read-out: MIC90.
[12] abbreviates: Pseudomonas aeruginosa, 40, P. aeruginosa 40, read-out: MIC90.
The mark [13] stands for this setting: A. baumannii 52, read-out: MIC90.
Where [14] appears, read: P. aeruginosa 43, read-out: MIC90.
The mark [15] stands for this setting: Acinetobacter baumannii, 46, A. baumannii 46.
Where [16] appears, read: ATCC15473, A. calcoaceticus ATCC15473.
Setting [17] is: Acinetobacter baumannii, 49, A. baumannii 49.

Converted amounts (≈) assume the structure as drawn. Read-outs that look alike come from different tables or passages of the source. Bounds are passed on as bounds.

Regarding `C[C@H](O/N=C(\C(=O)N[C@@H]1C(=O)N2C(C(=O)[O-])=C(/C=C/C[n+]3cnc(N)c(NCCNC(=O)c4cc(=O)c(O)cn4O)c3)CSC12)c1nc(N)sc1Cl)C(=O)O` (stereo partly shown) [Compound 24], the MIC90 with K. pneumoniae β10 (setting [2]) was less than 0.0625 µg/mL; with K. pneumoniae β9 (setting [3]), less than 0.0625 µg/mL; in the experiment with M. catarrhalis 2524 (setting [4]) it was less than 0.0625 µg/mL; in the experiment with A. baumannii 46 (setting [5]), 2 µg/mL (≈ 2.44 µM); in experiment [1] (setting [6]), 0.5 µg/mL (≈ 0.61 µM); in the experiment on E. coli β4 (read-out: MIC90), less than 0.0625 µg/mL. For the same molecule, the MIC90 in the experiment on K. pneumoniae β13 (setting [7]) was 0.125 µg/mL (≈ 0.152 µM); in the experiment on K. pneumoniae β14 (read-out: MIC90) it was 4 µg/mL (≈ 4.88 µM); with P. aeruginosa 6065Y (read-out: MIC90), 0.5 µg/mL (≈ 0.61 µM); in the experiment with K. pneumoniae β11 (setting [8]), 2 µg/mL (≈ 2.44 µM); in the experiment with E. coli AG100 (setting [9]) it was less than 0.0625 µg/mL; in the experiment on K. pneumoniae 2011E (setting [10]), 0.5 µg/mL (≈ 0.61 µM). Also, the MIC90 with A. baumannii 49 (setting [11]) was 32 µg/mL (≈ 39 µM); with P. aeruginosa 40 (setting [12]) it was 0.25 µg/mL (≈ 0.305 µM); with A. baumannii 52 (setting [13]), 16 µg/mL (≈ 19.5 µM); in the experiment with P. aeruginosa 43 (setting [14]), 0.25 µg/mL (≈ 0.305 µM); in the experiment on P. aeruginosa 37 (read-out: MIC90) it was less than 0.0625 µg/mL; with P. aeruginosa 1912E (read-out: MIC90) it was 0.25 µg/mL (≈ 0.305 µM). For the same molecule, the MIC90 in the experiment with E. cloacae β19 (read-out: MIC90) worked out at 0.5 µg/mL (≈ 0.61 µM).
Consider `CC(C)(O/N=C(\C(=O)N[C@@H]1C(=O)N2C(C(=O)[O-])=C(/C=C/C[n+]3cnc(N)c(NCCNC(=O)c4cc(=O)c(O)cn4O)c3)CSC12)c1nsc(N)n1)C(=O)O` (stereo partly shown) [Compound 25], for which the MIC90 in the experiment with K. pneumoniae β10 (setting [2]) is less than 0.0625 µg/mL; in the experiment with K. pneumoniae β9 (setting [3]), less than 0.0625 µg/mL; in the experiment with M. catarrhalis 2524 (setting [4]), less than 0.0625 µg/mL; in the experiment on A. baumannii 46 (setting [5]), 0.5 µg/mL (≈ 0.624 µM); in experiment [1] (setting [6]), 0.25 µg/mL (≈ 0.312 µM); with E. coli β4 (read-out: MIC90), less than 0.0625 µg/mL. Besides, the MIC90 is less than 0.0625 µg/mL in the experiment on K. pneumoniae β13 (setting [7]); 16 µg/mL (≈ 20 µM) in the experiment on K. pneumoniae β14 (read-out: MIC90); 0.5 µg/mL (≈ 0.624 µM) in the experiment with P. aeruginosa 6065Y (read-out: MIC90); greater than 128 µg/mL in the experiment on K. pneumoniae β11 (setting [8]); less than 0.0625 µg/mL in the experiment with E. coli AG100 (setting [9]); 0.25 µg/mL (≈ 0.312 µM) in the experiment with K. pneumoniae 2011E (setting [10]). Also, the MIC90 with A. baumannii 49 (setting [11]) was 128 µg/mL (≈ 160 µM); with P. aeruginosa 40 (setting [12]), less than 0.0625 µg/mL; with A. baumannii 52 (setting [13]), 8 µg/mL (≈ 9.99 µM); in the experiment on P. aeruginosa 43 (setting [14]) it was 0.25 µg/mL (≈ 0.312 µM); in the experiment with P. aeruginosa 37 (read-out: MIC90), less than 0.0625 µg/mL; in the experiment with P. aeruginosa 1912E (read-out: MIC90), 0.25 µg/mL (≈ 0.312 µM). In addition, the MIC90 with E. cloacae β19 (read-out: MIC90) came to 1 µg/mL (≈ 1.25 µM).
Turning to `CC(C)(O/N=C(\C(=O)N[C@@H]1C(=O)N2C(C(=O)[O-])=C(C[n+]3cnc(NCCCCN)c(NCCCCN)c3)CSC12)c1csc(N)n1)C(=O)O` (stereo partly shown) [Compound 41], the MIC90 against K. pneumoniae β10 is 2 µg/mL (≈ 2.78 µM); against K. pneumoniae β9, 2 µg/mL (≈ 2.78 µM); in the experiment on M. catarrhalis 2524 (2524), 0.125 µg/mL (≈ 0.174 µM); against A. baumannii 46 (setting [15]) it was 32 µg/mL (≈ 44.5 µM); in experiment [1] (setting [16]) it was 1 µg/mL (≈ 1.39 µM); with E. coli β4, 1 µg/mL (≈ 1.39 µM). For the same molecule, the MIC90 worked out at 2 µg/mL (≈ 2.78 µM) with K. pneumoniae β13; 2 µg/mL (≈ 2.78 µM) against K. pneumoniae β14; 16 µg/mL (≈ 22.2 µM) in the experiment on P. aeruginosa 6065Y (6065Y); 8 µg/mL (≈ 11.1 µM) against K. pneumoniae β11; 1 µg/mL (≈ 1.39 µM) against E. coli AG100 (AG100); 4 µg/mL (≈ 5.56 µM) against K. pneumoniae 2011E. The MIC90 was 32 µg/mL (≈ 44.5 µM) in the experiment with A. baumannii 49 (setting [17]); 4 µg/mL (≈ 5.56 µM) against P. aeruginosa 40 (Pseudomonas aeruginosa, 40); 32 µg/mL (≈ 44.5 µM) in the experiment on A. baumannii 52 (52); 128 µg/mL (≈ 178 µM) in the experiment on P. aeruginosa 43 (43); 8 µg/mL (≈ 11.1 µM) in the experiment with P. aeruginosa 37; 4 µg/mL (≈ 5.56 µM) with P. aeruginosa 1912E. In addition, in the experiment on E. cloacae β19, the MIC90 turned out to be 4 µg/mL (≈ 5.56 µM).
For the molecule `CC(C)(O/N=C(\C(=O)N[C@@H]1C(=O)N2C(C(=O)[O-])=C(/C=C/C[n+]3cnc(N)c(NC(=O)CN)c3N)CSC12)c1csc(N)n1)C(=O)O` (stereo partly shown) [Compound 43], the MIC90 is 0.5 µg/mL (≈ 0.74 µM) in the experiment on K. pneumoniae β10; 1 µg/mL (≈ 1.48 µM) against K. pneumoniae β9; less than 0.0625 µg/mL with M. catarrhalis 2524 (2524); 32 µg/mL (≈ 47.4 µM) in the experiment with A. baumannii 46 (setting [15]); 4 µg/mL (≈ 5.92 µM) in experiment [1] (setting [16]); 0.5 µg/mL (≈ 0.74 µM) against E. coli β4. Besides, the MIC90 against K. pneumoniae β13 turned out to be 0.5 µg/mL (≈ 0.74 µM); in the experiment on K. pneumoniae β14, 1 µg/mL (≈ 1.48 µM); with P. aeruginosa 6065Y (6065Y), 16 µg/mL (≈ 23.7 µM); in the experiment on K. pneumoniae β11, 32 µg/mL (≈ 47.4 µM); against E. coli AG100 (AG100), 0.25 µg/mL (≈ 0.37 µM); in the experiment on K. pneumoniae 2011E, 0.5 µg/mL (≈ 0.74 µM). The MIC90 with A. baumannii 49 (setting [17]) was greater than 128 µg/mL; in the experiment with P. aeruginosa 40 (Pseudomonas aeruginosa, 40), 16 µg/mL (≈ 23.7 µM); against A. baumannii 52 (52), greater than 128 µg/mL; with P. aeruginosa 43 (43), greater than 128 µg/mL; in the experiment on P. aeruginosa 37, 32 µg/mL (≈ 47.4 µM); in the experiment on P. aeruginosa 1912E, 4 µg/mL (≈ 5.92 µM). In the experiment with E. cloacae β19, this molecule registered an MIC90 of 0.5 µg/mL (≈ 0.74 µM).
